Experiments:
cholesterol fed rats = test: Subacute studies in cholesterol fed rats, PO once a day for seven days: cholesterol reduction, heart weight; format: in vivo, rat; conditions: 0.6-50 mg/kg/day PO once a day for seven days
Procedure: Methods: […] Compound 13-1-cis and Compound 18 were administered PO once a day for seven days. Serum TSH is measured using an enzyme immunoassay (EIA) kit designed for rat TSH (Amersham Pharmacia Biotech, Arlington Heights, Ill.). Expression levels of liver genes (e.g., the LDL-receptor, apoB, cpt-1, spot14 and apoA1) and heart genes ([…]^2, Kv1.5, MHCα, MHCβ, Alpha1c) are quantified by Northern blot analysis or by RT-PCR. […] Oligonucleotides specific for the complementary gene sequences are used to make ^32P-labeled probes (Multiprime DNA labeling systems, Amersham Pharmacia Biotech). Following hybridization of the probes to the nylon membranes, radioactivity is assessed on a blue film (Eastman Kodak Co,), and the resulting image quantified using the appropriate software. RT-PCR is performed using an iCycler instrument (Biorad) using appropriate primers by means of standard methodology [[…] et al. (2000) Life Sciences 66: 1683-94]. […] The activities of PEPCK and glucose 6-phosphatase in liver are measured by means of direct enzymatic assays of homogenized liver tissue as described by Andrikopoulos S et al. (1993) Diabetes 42: 1731-1736. Alternatively, expression levels of the corresponding genes are determined by Northern blot analysis or RT-PCR as described above.

ZDF rats [1] = conditions: rat, in vivo, 28 days
Procedure: Compound 18 was administered at doses up to 5 mg/kg/d. Compound cis-13-1 was administered at doses up to 50 mg/kg/d. We reasoned that the ZDF rat, as a metabolically challenged animal model, would be more sensitive to the potential adverse cardiac effects of thyromimetics than a normal, cholesterol-fed rat. At sacrifice, heart rate, and the first derivative of left ventricular pressure (LV dP/dt) were measured with a Millar catheter inserted into the left ventricle.

[2] = tested on: Hypercholesterolemic rats; test: Cholesterol lowering in hypercholesterolemic (cholesterol-fed) rats; format: in vivo, rat
Procedure: Plasma cholesterol values were assessed prior to and following treatment and the effects of compound were expressed as a percentage change from the pre-dose cholesterol levels. […] Compounds were routinely tested for oral efficacy at a dose of 0.5 mg/kg/d. Hypercholesterolemic rats were treated with vehicle, Compound 13-1-cis (a HepDirect version of Compound 7), Compound 19-1 (a diethyl ester of Compound 19-2), Compound 13-9 (a HepDirect version of Compound 19-2), Compound 12-5 (a bisPom version of compound 19-2), or Compound 15-5 (a bisamidate version of Compound 19-2) at 0.5 mg/kg/d orally. Compound 13-1-cis has been extensively characterized and was used as the positive control for the assay.

Sprague Dawley (SD) rat = test: Cardiovascular activity of T3 mimetics in the Sprague Dawley rat, oral 7 days; format: in vivo; conditions: SD rats, p.o. 7 days, Compound cis-13-1 1-50 mg/kg/day
Description: Method: […] The control group (n=6) was given vehicle only. […] On the 7th day after the start of dosing, animals were anesthetized with Isoflurane and the left ventricle cannulated with a high fidelity catheter tip transducer via the right carotid artery. Left ventricular pressure, its first derivative (LVdP/dt), lead I ECG, and heart rate (HR) triggered off the ECG waveform, were digitally recorded. LV dP/dt is a well accepted measure of ionotropic state. Systolic and diastolic aortic pressures were measured by retracting the catheter into the proximal aorta.

cholesterol-fed rat = test: Subacute studies in cholesterol-fed rats, IP once-a-day for seven days: serum cholesterol, heart weight, heart GPDH
Procedure: The cholesterol-fed rat is an animal model of hypercholesterolemia generated by feeding the animals a diet with high cholesterol content.
Serum cholesterol values were assessed and the animals randomized into groups for treatment.

ZDF rats [3] = test: Liver triglycerides and liver histology in ZDF rats, oral 28 days; format: in vivo, rat
Procedure: In other experiments, Compound 7 was orally administered to ZDF rats for 28 days. Liver triglycerides were analyzed as described above. Total liver triglycerides were reduced in the treated animals 42% in the 2.5 mg/kg/d group. […] The hepatic steatosis is a well known and described phenomenon for the ZDF rat, and therefore not attributable to vehicle treatment.

[4] = Liver distribution following oral administration (liver levels of Compound 7 by LC-MS); format: in vivo, rat; conditions: levels of Compound 7 in liver, 10 mg/kg@1.5 h, normal rats
Procedure: Liver levels of Compound 7 were assessed in normal rats following oral administration of the HepDirect™ or other prodrugs. The levels were used to estimate potential efficacy. Liver levels were assessed by LC-MS using the 363.3/63.0 peak area to estimate levels of Compound 7 generated by orally administered prodrugs.

isolated rat hepatocytes = test: Activation of prodrug in isolated rat hepatocytes; format: in vitro ADME; conditions: active species in hepatocytes, 100 μM
Procedure: Method: Hepatocytes are prepared from fed Sprague-Dawley rats (250-300 g) according to the procedure of Berry and Friend (Berry, M. N., Friend, D. S. J. Cell Biol. 43, 506-520 (1969)) as modified by Groen (Groen, A. K. et al., Eur J. Biochem 122, 87-93 (1982)). Hepatocytes (60 mg wet weight/mL) are incubated in 1 mL Krebs-bicarbonate buffer containing 10 mM glucose, and 1 mg/mL BSA. Incubations are carried out in a 95% oxygen, 5% carbon dioxide atmosphere in closed, 50-mL Falcon tubes submerged in a rapidly shaking water bath (37° C.). Prodrugs are dissolved in DMSO to yield 10 mM stock solutions, and then diluted into the cell suspension to yield a final concentration of 100 μM. At appropriate time points over the course of 1 h, aliquots of the cell suspension are removed and spun through a silicon/mineral oil layer into 10% perchloric acid. The cell extracts in the acid layers are neutralized, and the intracellular prodrug metabolite content analyzed by reverse phase HPLC or LC-MS/MS (Example F). The AUC of the active species in the hepatocytes is calculated from the concentration-time profile of parent compound.

ZDF rats [5] = test: Circulating TSH in ZDF rats treated 28 days; format: in vivo, rat; conditions: 50 mg/kg/d for 28 days
Description: Another concern with synthetic thyromimetics is the suppression of the endogenous thyroid axis. Thyroid homeostasis is maintained by the action of thyroid releasing hormone (TRH) and thyroid stimulating hormone (TSH). […] Although this particular side effect has been noted, it has typically been treated with less concern than the cardiac safety issues. […] Therefore previous investigators have measured TSH levels when testing synthetic thyromimetics and have used a 30% decrease of TSH as the denominator in their therapeutic index calculations. […] Therefore, both compounds suppress TSH as doses lower than that required to decrease circulating cholesterol. […] However, 0.2 mg/kg/d of Compound 18 in 28 day treated ZDF rats, decreased TSH levels greater than 90%.

[6] = Compound 18 1 mg/kg, vs control
[7] = Compound 18 1 mg/kg, vs vehicle

SMILES	serum cholesterol (cholesterol fed rats)	TI Improvement, ED15 HR (ZDF rats [1])	cholesterol lowering ([2]; hypercholesterolemic rats, 0.5 mg/kg/d orally)	Heart weight (Sprague Dawley (SD) rat; [6])	heart weight normalized to body weight (Sprague Dawley (SD) rat; [6])	HR (Sprague Dawley (SD) rat; [7])	LV dP/dt (Sprague Dawley (SD) rat; [7])	systolic aortic pressure (Sprague Dawley (SD) rat; [7])	diastolic aortic pressure (Sprague Dawley (SD) rat; vs vehicle)	serum cholesterol (cholesterol-fed rat; 1-100 mg/kd/day, IP once-a-day for seven days)	therapeutic window (separation between cholesterol lowering and cardiac toxicity) (cholesterol-fed rat; cholesterol-fed rats)	microvesicular steatosis (H&E liver histology) (ZDF rats [3])	Liver Levels [4]	AUC (0-2 h) (isolated rat hepatocytes)	TSH (ZDF rats [5])	efficacy in lowering cholesterol ([2]; another experiment, dose and route not given)
Cc1cc(OC[P@@]2(=O)OCC[C@@H](c3cccc(Cl)c3)O2)cc(C)c1Cc1ccc(O)c(C(C)C)c1 [Compound 13-1-cis, Cis (S)-2-[(3,5-Dimethyl-4-(4′-hydroxy-3′-iso-propylbenzyl)phenoxy)methyl]-4-(3-Chlorophenyl)-2-oxo-2λ^5-[1,3,2]-dioxaphosphinane]	significantly decreased serum cholesterol	>39	significant lowering of cholesterol	no significant changes	no significant changes	not significantly different	not significantly different	not significantly different	not significantly different	–	–	–	–	–	–	–
Cc1cc(OCP(=O)(O)O)cc(C)c1Cc1ccc(O)c(C(C)C)c1 [Compound 7, [3,5-dimethyl-4-(4′-hydroxy-3′-iso-propylbenzyl)phenoxy]methylphosphonic Acid]	–	–	–	–	–	–	–	–	–	significantly decreased serum cholesterol	10- to 100 fold	dose dependent reduction in the microvesicular steatosis	Not Detected	1371 nmol·h/g	no statistically significant difference from vehicle	efficacous

From US7829552B2, “Phosphorus-containing thyromimetics” (Metabasis Therapeutics, Inc., priority 2003, dated 2010)
